According to patent publication US10781262B2, “Combination therapy of T cell activating bispecific antigen binding molecules and PD-1 axis binding antagonists” (Hoffmann-La Roche Inc., priority 2014, dated 2020):
Where two headings read alike, the source gives them in different places.

How the values were obtained:
[1] = system: Karpas-299; assay: Cytotoxic activity, CellTiter-Glo Luminescent Cell Viability Assay; type: cell-based; conditions: Fab-PE24 constructs
Text: (§1) Cycloheximide was used as positive control.

[2] = system: CMK; assay: as above; type: cell-based; conditions: Fab-PE24 constructs
Text: as §1

[3] = system: TF-1; assay: as above; type: cell-based; conditions: Fab-PE24 constructs
Text: as §1

[4] = system: MOLM-13; assay: as above; type: cell-based; conditions: Fab-PE24 constructs
Text: as §1

[5] = system: RPMI-8226 cells; assay: as above; conditions: for IC50: Homo sapiens
Description: (§2) Treatment ranges from 10 μg/ml to 1 ng/ml in triplicate. All antibodies were used as full length mouse Fcγ versions. For conjugation of the conjugation of the Pseudomonas exotoxin 10 μg/ml of mouse Fcγ fragment specific Fabs conjugated with PE 24 were added and incubated for 3 days at 37° C. Cycloheximide as a known protein synthesis inhibitor in eukaryotes was used as positive control. Viability of treated cells were measured with Promega CellTiter-Glo Luminescent Cell Viability Assay.
(§3) The cytotoxic activity was calculated as follow: Rel. Inhibition [%]=(1−(Esampel−E negative control)/(E positive control−E negative control))*100
(§4) All antibodies were used as full length human IgG1 format including the human Fcgamma part. In this experiment conjugation of the Pseudomonas exotoxin was achieved via human Fcγ fragment specific Fabs conjugated with PE 24 (10 μg/ml) which were added and incubated for 5 days at 37° C.
(§5) The cytotoxic activity was analysed with Promega CellTiter-Glo Luminescent Cell Viability Assay as described above. 1:5 serial dilutions of Fab-fragments of disclosed anti-TIM3 antibodies directly conjugated to PE24 with the highest concentration of 50 μg/ml or appropriate media to untreated cells or non-binding anti-PSMA Fab-PE24 control to untargeted treated cells were incubated with 7.5×10^3 Pfeiffer cells or 2×10^3 RPMI-8226 cells (50 μl/well in […]) for 4 days at 37° C. Treatment ranges from 50 μg/ml to 8 ng/ml in triplicate. Cycloheximide was used as positive control.
(§6) The evaluation of cytotoxic activity of sortase coupled Fab-PE24 constructs of selected disclosed anti-TIM3 antibodies was analysed with Promega CellTiter-Glo Luminescent Cell Viability Assay as described above in Example 28.

[6] = system: Pfeiffer cells; assay: as above; conditions: for IC50: Homo sapiens, Pfeiffer
Description: as §2, §3, §4, §5, §6

[7] = system: recombinant CHO K1 stabile expressing human TIM-3; assay: as above; type: cell-based; conditions: CHO-K1, 72 h; sandwich format: mouse Fcγ antibodies + mouse Fcγ specific Fabs conjugated with PE 24, 3 days
[8] = system: primary CD34+ AML cells from relapsed/refractory patients; assay: Cytotoxic activity on primary AML cells, CellTiter-Glo; type: cell-based, human; conditions: Fab-PE24 constructs, 3 days; for IC50: Homo sapiens, 72 h
Text: CD34^+ cells from peripheral blood of relapsed/refractory patients were obtained from AllCells, LLC, Alameda, Calif. […] (see FIG. 31).
as §1

[9] = target: T1, human Folate Receptor 1 (FolR1-Fc) (Homo sapiens, UniProt P15328); assay: SPR avidity to Folate Receptor 1 (bivalent binding); conditions: bivalent binding (avidity), ligand huFolR1
T1 construct: the extracellular domain of the antigen linked to the hinge region of Fc-knob; made in house; host or cells: HEK293 EBNA
T1 sequence (P15328 with tags, fused parts or gaps): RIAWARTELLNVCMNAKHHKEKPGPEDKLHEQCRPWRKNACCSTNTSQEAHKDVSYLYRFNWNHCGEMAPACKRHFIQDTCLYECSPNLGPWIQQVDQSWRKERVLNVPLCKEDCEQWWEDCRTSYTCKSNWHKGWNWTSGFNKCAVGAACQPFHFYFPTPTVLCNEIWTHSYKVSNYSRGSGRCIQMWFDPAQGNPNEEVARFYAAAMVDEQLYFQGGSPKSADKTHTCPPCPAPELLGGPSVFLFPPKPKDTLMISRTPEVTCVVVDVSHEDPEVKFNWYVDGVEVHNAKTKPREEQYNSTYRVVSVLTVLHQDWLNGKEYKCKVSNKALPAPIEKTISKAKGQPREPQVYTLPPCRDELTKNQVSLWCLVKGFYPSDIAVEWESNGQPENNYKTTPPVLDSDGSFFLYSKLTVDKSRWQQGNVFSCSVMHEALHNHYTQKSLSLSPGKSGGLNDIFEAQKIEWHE
T1 sequence (P01857 104-330 isoform P01857-1 Y232C/T249S/L251A/Y290V/H318R/Y319F partner): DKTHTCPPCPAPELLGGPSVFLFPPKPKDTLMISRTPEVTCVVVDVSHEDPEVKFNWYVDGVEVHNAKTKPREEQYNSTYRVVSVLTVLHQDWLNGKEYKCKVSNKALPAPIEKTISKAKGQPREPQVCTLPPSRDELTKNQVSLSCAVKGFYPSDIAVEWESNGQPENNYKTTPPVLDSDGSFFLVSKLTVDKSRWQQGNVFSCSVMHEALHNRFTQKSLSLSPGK
Text: The immobilization level was about 300-400 RU. […] The dissociation was monitored for 600 seconds.

[10] = system: cynomolgus FolR1; conditions: IgG injected for 60 seconds at 500 nM
cynomolgus FolR1, sequence (as listed by the source): as the sequence (P15328 with tags, fused parts or gaps) above, with I2T, W4R, R37K, A146P, H171Y counted along it
Description: (§7) Binding of FolR1 binders as IgG or in the T-cell bispecific format to different recombinant folate receptors (human FolR1, 2 and 3, murine FolR1 and cynomolgus FolR1; all as Fc fusions) was assessed by surface plasmon resonance (SPR). All SPR experiments were performed on a Biacore T200 at 25° C. with HBS-EP as running buffer (0.01 M HEPES pH 7.4, 0.15 M NaCl, 3 mM EDTA, 0.005% Surfactant P20, Biacore, Freiburg/Germany).
(§8) First the anti-FolR1 IgGs were analyzed by single injections (Table 1) to characterize their crossreactivity (to human, murine and cyno FolR1) and specificity (to human FolR1, human FolR2, human FolR3). Recombinant biotinylated monomeric Fc fusions of human, cynomolgus and murine Folate Receptor 1 (FolR1-Fc) or human Folate Receptor 2 and 3 (FolR2-Fc, FolR3-Fc) were directly coupled on a SA chip using the standard coupling instruction (Biacore, Freiburg/Germany). The immobilization level was about 300-400 RU. The IgGs were injected for 60 seconds at a concentration of 500 nM.

[11] = target: human FolR2 (Homo sapiens, UniProt P14207); conditions: IgG injected for 60 seconds at 500 nM
human FolR2, sequence (P14207 with tags, fused parts or gaps): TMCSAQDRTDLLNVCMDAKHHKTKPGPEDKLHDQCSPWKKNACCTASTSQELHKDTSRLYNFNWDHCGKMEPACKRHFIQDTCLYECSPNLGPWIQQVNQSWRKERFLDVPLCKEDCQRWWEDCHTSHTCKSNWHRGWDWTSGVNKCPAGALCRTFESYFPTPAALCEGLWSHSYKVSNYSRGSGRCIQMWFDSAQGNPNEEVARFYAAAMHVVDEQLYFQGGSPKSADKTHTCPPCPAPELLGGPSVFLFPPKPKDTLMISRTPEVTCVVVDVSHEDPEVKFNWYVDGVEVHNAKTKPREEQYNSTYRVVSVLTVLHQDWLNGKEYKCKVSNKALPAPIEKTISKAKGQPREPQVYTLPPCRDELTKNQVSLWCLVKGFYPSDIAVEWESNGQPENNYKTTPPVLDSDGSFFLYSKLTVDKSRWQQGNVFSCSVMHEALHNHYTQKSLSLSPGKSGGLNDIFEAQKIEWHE
human FolR2, sequence (P01857 104-330 isoform P01857-1 Y232C/T249S/L251A/Y290V/H318R/Y319F partner): as the sequence (P01857 104-330 isoform P01857-1 Y232C/T249S/L251A/Y290V/H318R/Y319F partner) above
Description: as §7, §8

[12] = target: human FolR3 (Homo sapiens, UniProt P41439); conditions: IgG injected for 60 seconds at 500 nM
human FolR3, sequence (P41439 with tags, fused parts or gaps): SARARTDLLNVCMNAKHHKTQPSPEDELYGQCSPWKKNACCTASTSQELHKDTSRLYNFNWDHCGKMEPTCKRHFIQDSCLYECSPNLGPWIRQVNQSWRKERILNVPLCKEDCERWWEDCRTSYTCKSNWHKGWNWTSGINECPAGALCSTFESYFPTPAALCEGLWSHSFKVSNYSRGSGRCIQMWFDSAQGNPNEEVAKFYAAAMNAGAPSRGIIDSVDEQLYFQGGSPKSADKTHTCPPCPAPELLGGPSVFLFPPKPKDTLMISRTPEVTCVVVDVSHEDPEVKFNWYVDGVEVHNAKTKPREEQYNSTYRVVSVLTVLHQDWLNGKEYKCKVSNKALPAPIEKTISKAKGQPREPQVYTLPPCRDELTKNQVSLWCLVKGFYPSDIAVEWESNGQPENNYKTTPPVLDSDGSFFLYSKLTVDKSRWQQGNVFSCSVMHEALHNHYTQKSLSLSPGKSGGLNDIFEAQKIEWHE
human FolR3, sequence (P01857 104-330 isoform P01857-1 Y232C/T249S/L251A/Y290V/H318R/Y319F partner): as the sequence (P01857 104-330 isoform P01857-1 Y232C/T249S/L251A/Y290V/H318R/Y319F partner) above
Description: as §7, §8

[13] = target: murine FolR1 (Mus musculus, UniProt P35846); conditions: IgG injected for 60 seconds at 500 nM
murine FolR1, sequence (P35846 with tags, fused parts or gaps): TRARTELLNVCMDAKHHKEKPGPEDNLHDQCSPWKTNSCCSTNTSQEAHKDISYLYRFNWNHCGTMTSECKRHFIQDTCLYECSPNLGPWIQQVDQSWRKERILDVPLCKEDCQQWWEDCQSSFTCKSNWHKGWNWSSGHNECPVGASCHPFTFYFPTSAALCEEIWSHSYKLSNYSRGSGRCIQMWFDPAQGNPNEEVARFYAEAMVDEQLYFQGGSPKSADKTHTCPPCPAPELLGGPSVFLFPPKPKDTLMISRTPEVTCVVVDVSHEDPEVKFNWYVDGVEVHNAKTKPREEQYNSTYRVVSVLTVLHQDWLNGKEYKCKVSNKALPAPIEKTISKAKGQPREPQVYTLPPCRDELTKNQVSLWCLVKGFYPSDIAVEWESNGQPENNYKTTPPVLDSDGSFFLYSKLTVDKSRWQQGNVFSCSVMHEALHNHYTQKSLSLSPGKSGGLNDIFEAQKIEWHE
murine FolR1, sequence (as listed by the source partner): as the sequence (P01857 104-330 isoform P01857-1 Y232C/T249S/L251A/Y290V/H318R/Y319F partner) above
Description: as §7, §8

[14] = target: human FolR1 (Homo sapiens, UniProt P15328); conditions: IgG injected for 60 seconds at 500 nM
human FolR1, sequence (P15328 with tags, fused parts or gaps): as the sequence (P15328 with tags, fused parts or gaps) above
human FolR1, sequence (P01857 104-330 isoform P01857-1 Y232C/T249S/L251A/Y290V/H318R/Y319F partner): as the sequence (P01857 104-330 isoform P01857-1 Y232C/T249S/L251A/Y290V/H318R/Y319F partner) above
Description: as §7, §8

[15] = target: cyno Folate Receptor 1 Fc fusion; conditions: monovalent binding (affinity), analyte cyFolR1
cyno Folate Receptor 1 Fc fusion, sequence (as listed by the source): as the sequence (P15328 with tags, fused parts or gaps) above, with I2T, W4R, R37K, A146P, H171Y counted along it
cyno Folate Receptor 1 Fc fusion, sequence (P01857 104-330 isoform P01857-1 Y232C/T249S/L251A/Y290V/H318R/Y319F partner): as the sequence (P01857 104-330 isoform P01857-1 Y232C/T249S/L251A/Y290V/H318R/Y319F partner) above
Description: as §7
(§9) For affinity measurement, direct coupling of around 6000-7000 resonance units (RU) of the anti-human Fab specific antibody (Fab capture kit, GE Healthcare) was performed on a CM5 chip at pH 5.0 using the standard amine coupling kit (GE Healthcare). Anti-FolR1 IgGs or T cell bispecifics were captured at 20 nM with a flow rate of 10 μl/min for 20 or 40 sec, the reference flow cell was left without capture. Dilution series (6.17 to 500 nM or 12.35 to 3000 nM) of human or cyno Folate Receptor 1 Fc fusion were passed on all flow cells at 30 μl/min for 120 or 240 sec to record the association phase. The dissociation phase was monitored for 240 s and triggered by switching from the sample solution to HBS-EP. The chip surface was regenerated after every cycle using a double injection of 60 sec 10 mM Glycine-HCl pH 2.1 or pH 1.5. Bulk refractive index differences were corrected for by subtracting the response obtained on the reference flow cell 1. The affinity constants for the interactions were derived from the rate constants by fitting to a 1:1 Langmuir binding using the Bia Evaluation software (GE Healthcare).

[16] = target: human Folate Receptor 1 Fc fusion (Homo sapiens, UniProt P15328); conditions: monovalent binding (affinity), analyte huFolR1
human Folate Receptor 1 Fc fusion, sequence (P15328 with tags, fused parts or gaps): as the sequence (P15328 with tags, fused parts or gaps) above
human Folate Receptor 1 Fc fusion, sequence (P01857 104-330 isoform P01857-1 Y232C/T249S/L251A/Y290V/H318R/Y319F partner): as the sequence (P01857 104-330 isoform P01857-1 Y232C/T249S/L251A/Y290V/H318R/Y319F partner) above
Description: as §7, §9

[17] = system: cynomolgus Folate Receptor 1 (FolR1-Fc); conditions: bivalent binding (avidity), ligand cyFolR1
cynomolgus Folate Receptor 1 (FolR1-Fc), sequence (as listed by the source): as the sequence (P15328 with tags, fused parts or gaps) above, with I2T, W4R, R37K, A146P, H171Y counted along it
cynomolgus Folate Receptor 1 (FolR1-Fc), sequence (as listed by the source partner): as the sequence (P01857 104-330 isoform P01857-1 Y232C/T249S/L251A/Y290V/H318R/Y319F partner) above
Description: as §7
The avidity of the interaction between the anti-FolR1 IgGs or T cell bispecifics and the recombinant folate receptors was determined as described below (Table 9). Recombinant biotinylated monomeric Fc fusions of human, cynomolgus and murine Folate Receptor 1 (FolR1-Fc) were directly coupled on a SA chip using the standard coupling instruction (Biacore, Freiburg/Germany). The immobilization level was about 300-400 RU. The anti-FolR1 IgGs or T cell bispecifics were passed at a concentration range from 2.1 to 500 nM with a flow of 30 μL/minutes through the flow cells over 180 seconds. The dissociation was monitored for 600 seconds. […] The binding curves resulting from the bivalent binding of the IgGs or T cell bispecifics were approximated to a 1:1 Langmuir binding and fitted with that model (which is not correct, but gives an idea of the avidity). The apparent avidity constants for the interactions were derived from the rate constants of the fitting using the Bia Evaluation software (GE Healthcare).

[18] = human IgG1 format + human Fcγ specific Fabs conjugated with PE 24, 5 days
[19] = sortase coupled Fab-PE24 constructs
[20] = Fab-PE24 construct vs. total IgG-Amatoxin conjugate

`C[C@@H]1C[C@@H]([C@H](O)CC2CC(=O)NC(=O)C2)C(=O)[C@@H](C)C1` [Cycloheximide] was tested, and the Max. killing [1] was 100 [%], the IC50 ([1]; Homo sapiens, KARPAS-299) was 113 nM and the Max. killing [2] was 100 [%]. The IC50 ([2]; Homo sapiens, CMK) was 149 nM, the Max. killing [3] was 100 [%] and the IC50 ([3]; Homo sapiens, TF-1) was 207 nM. For the same compound, the Max. killing [4] was 100 [%], the IC50 ([4]; Homo sapiens, MOLM-13) was 156 nM and the Max. killing ([5]; Fab-PE24 constructs, 4 days) was 100 [%]. The IC50 ([5]; RPMI-8226) was 153 nM, the IC50 ([5]; RPMI-8226, 96 h) was 281 nM and the Max. killing [5, 18] was 100 [%]. For the same compound, the Max. killing [5, 19] was 100 [%], the Max. killing [6, 20] was 100 [%] and the IC50 ([6]; 72 h, sandwich format: mouse Fcγ antibodies + mouse Fcγ specific Fabs conjugated with PE 24, 3 days) was 181 nM. For the same compound, the IC50 ([6]; 120 h, read-out: Rel. IC50, human IgG1 format + human Fcγ specific Fabs conjugated with PE 24, 5 days) was 271 nM, the IC50 [6, 20] was 163 nM and the IC50 [6, 19] was 271 nM. The Max. killing [6, 18] was 100 [%], the Max. killing [6, 19] was 100 [%] and the IC50 [7] was 135 nM. The Max. killing ([8]; D1, AML CD34+ PB0136 cells) was 100 [%], the Max. killing ([8]; D2, AML CD34+ PB0142 cells) was 100 [%] and the Max. killing ([8]; D3, AML CD34+ PB0135 cells) was 100 [%]. The Max. killing ([8]; D4, AML CD34+ PB0193 cells) was 100 [%], the IC50 ([8]; D1, AML CD34+ PB0136 cells) was 212 nM and the IC50 ([8]; D2, AML CD34+ PB0142 cells) was 262 nM. For the same compound, the IC50 ([8]; D3, AML CD34+ PB0135 cells) was 121 nM and the IC50 ([8]; D4, AML CD34+ PB0193 cells) was 208 nM.

In the case of Farletuzumab [reference compound], the ka [9] is reported as 1.23e+06 M⁻¹ s⁻¹, the kd [9] is reported as 0.0009 s⁻¹ and the “Binding to cyFolR1” value [10] is reported as “+”. The “Binding to huFolR2” value [11] was “−”, the “Binding to huFolR3” value [12] was “−” and the “Binding to muFolR1” value [13] was “−”. The “Binding to huFolR1” value [14] was “+”, the Kd [15] was 67.3 nM and the ka [15] was 553000 M⁻¹ s⁻¹. It also gave a kd [15] of 0.0373 s⁻¹, a ka [16] of 417000 M⁻¹ s⁻¹ and a kd [16] of 0.023 s⁻¹. The ka [17] was 1.33e+06 M⁻¹ s⁻¹, the kd [17] was 0.000868 s⁻¹ and the Kd ([17]; read-out: Apparent KD, approximated 1:1 Langmuir fit) was 0.65 nM.
